In brackets after ≈: the same amount, converted by molar mass. Several values for one entry are separate records, joined by “and”; a condition that tells them apart may be missing. Identical values can stand only once. Like-named read-outs stand apart in the source and are kept apart here.
Experiments:
MDA468 = assay: IC50 by MTT assay on MDA468 cells; format: cell-based, human
MDA NQ01 = assay: IC50 by MTT assay on NQ01 cells; format: cell-based, human; conditions: for MDA468 to NQ01 differential: ratio of IC50 values
physchem [1] = format: physicochemical; conditions: buffer, pH 7
physchem [2] = format: physicochemical; conditions: buffer, pH 7.4
Experimental: The stability of esters and their hydrolysis products was measured in solution. (50 μM Es5 in Tris buffer (0.1 mol dm^−3) at pH 7.4). Samples were taken at timed intervals up to 24 hours and analysed by HPLC. The detection wavelength was 330 nm. Chromatographic analysis was carried out by isocratic elution with 30:70 MeOH: Tris buffer (0.1 mol dm^−3, pH 7.4), at 1 ml min^−1. The chromatographic separation of the drug was achieved using a Hypersil ODS column with 250 mm×4.6 mm I.D.

H460 NSCLC = assay: In vivo hollow fibre assay, H460; conditions: fibres at s.c. site; i.p. dosing days 3-6; nude mice
Experimental: (§1) The activity of Es5 (4.65) was evaluated in vivo against 3 cancer cell lines H460, MDA-MB-468-NQ01 and MDA-MB-468-MOCK using the in vivo hollow fibre assay (HFA), with fibres implanted at both intraperitoneal (i.p.) and subcutaneous (s.c.) sites. Es5 and the control agent Doxorubicin were administered as multiple doses by intraperitoneal injection (i.p.) on days 3, 4, 5 & 6 at 0.5 mg/kg/day and 2.5 mg/kg/day respectively.
(§2) Three human tumour cell lines were selected for analysis: H460 NSCLC (from ICT) and two breast carcinoma lines MDA-MB-468-NQ01 and MDA-MB-468-MOCK (both supplied by Onco-NX). Cells were cultured in RPMI 1640 cell culture medium supplemented with 1 mM sodium pyruvate, 2 mM L-glutamine and 10% foetal bovine serum (all from Sigma), and maintained as monolayer cultures at 37° C. in a humidified 5% CO2 environment.
(§3) Female Balb/C immunodeficient nude mice aged 6-8 weeks were used (Harlan UK, Blackthorn, UK). Mice were kept in cages housed in isolation cabinets in an air-conditioned room with regular alternating cycles of light and darkness. They received Teklad 2018 diet (Harlan, Blackthorn, UK) and water ad libitum. All animal procedures were carried out under a project licence issued by the UK Home Office and UKCCCR guidelines were followed throughout.
Cells were loaded into sterilised colour-coded PVDF Spectra/Por hollow fibres (HF) (Spectrum Medical Inc, Houston, Tex., USA). Briefly cells were harvested and resuspended in cell culture medium at the required cell density. This preparation was then loaded into the HF and the ends were clamped and heat-sealed. […]
(§4) Mice were sacrificed on day 7 post-implantation, fibres removed, and cell survival analysed using a modified MTT assay, comparing absorbances seen for the treated groups with the corresponding untreated control group. […]

MDA-MB-468-NQ01 = assay: In vivo hollow fibre assay, MDA-MB-468-NQ01; set-up: species or system mice
Experimental: as §1, §2, §3
Cells were loaded into sterilised colour-coded PVDF Spectra/Por hollow fibres (HF) (Spectrum Medical Inc, Houston, Tex., USA). Briefly cells were harvested and resuspended in cell culture medium at the required cell density. This preparation was then loaded into the HF and the ends were clamped and heat-sealed. The HF was then cut into 1.5 cm lengths which were again heat-sealed at both ends, and then transferred to 6-well plates containing medium before implantation for the in vivo experiments, or were incubated at 37° C. in a humidified 5% CO2 environment for varying times before processing using the modified MTT assay as described below.
For the in vivo experiments, under brief inhalation anaesthesia (2% isoflurane), one loaded hollow fibre for each of the cell lines was transplanted intraperitoneally or subcutaneously on the dorsal flank of each mouse and the mice were allowed to recover. Each group consisted of 6 mice and the implantation day was termed ‘day 0’.
For assessment of the therapeutic response of Es5 (4.65), on days 3, 4, 5 & 6 mice were treated with Es5 (4.65) at 0.5 mg/kg/day or Doxorubicin at 2.5 mg/kg/day.
Mice were sacrificed on day 7 post-implantation, fibres removed, and cell survival analysed using a modified MTT assay, comparing absorbances seen for the treated groups with the corresponding untreated control group. Statistical analysis was carried out using a Student's t-test.

MDA-MB-468-MOCK = assay: In vivo hollow fibre assay, MDA-MB-468-MOCK; conditions: fibres at s.c. site; i.p. dosing days 3-6; nude mice
Experimental: as §1, §2
as §3, with “All animal procedures were carried out under a project licence issued by the UK Home Office and UKCCCR guidelines were followed throughout.” left out
as §4

recombinant human DTD = recombinant human DTD (Homo sapiens, UniProt P15559); conditions: Beall et al.; Ross et al.; cited from earlier work
Chain of recombinant human DTD (P15559 whole entry): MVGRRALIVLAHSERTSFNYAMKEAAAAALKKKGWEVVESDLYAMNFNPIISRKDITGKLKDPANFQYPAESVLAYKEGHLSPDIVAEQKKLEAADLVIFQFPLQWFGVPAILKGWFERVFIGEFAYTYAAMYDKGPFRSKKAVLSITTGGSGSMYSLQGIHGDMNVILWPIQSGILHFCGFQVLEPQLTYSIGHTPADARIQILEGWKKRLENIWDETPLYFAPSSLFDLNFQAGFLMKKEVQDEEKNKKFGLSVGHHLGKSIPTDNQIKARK

MDA468 cells = assay: Combination index at IC50 with other anti-cancer agents in MDA468 cells; format: cell-based, human
NQ01 cells = assay: Combination index at IC50 with other anti-cancer agents in NQ01 cells; format: cell-based, human
[3] = cited from earlier work
[4] = Solubility (aqueous and organic)
[5] = Stability in aqueous and organic solution

## O=c1[nH]cc(F)c(=O)[nH]1 [5-fluorouracil]
MDA468; Homo sapiens
  IC50: 7960 nM
MDA NQ01; Homo sapiens, MTT assay
  IC50: 12000 nM

## N.N.[Cl][Pt][Cl] [Cisplatin]
MDA468
  IC50: 675 nM
MDA NQ01; MTT assay
  IC50: 570 nM

## [Cl][Co][Cl] [Cobalt chloride]
MDA468
  IC50: 35000 nM
MDA NQ01; MTT assay
  IC50: 54000 nM

## COc1cccc(C(=O)OCC2=C(N3CC3)C(=O)C(C)=C(N3CC3)C2=O)c1OC [Compound 4-05]
Physchem [1]
  half-life: < 10 min

## COc1ccc(OC)c(C(=O)OCC2=C(N3CC3)C(=O)C(C)=C(N3CC3)C2=O)c1 [Compound 4-07]
Physchem [1]
  half-life: < 20 min

## COc1ccc(C(=O)OCC2=C(N3CC3)C(=O)C(C)=C(N3CC3)C2=O)cc1OC [Compound 4-09]
Physchem [1]
  half-life: < 30 min

## COc1ccc(C(=O)OCC2=C(N3CC3)C(=O)C(C)=C(N3CC3)C2=O)c(OC)c1 [Compound 4-10]
Physchem [1]
  half-life: < 30 min

## COc1cccc(OC)c1C(=O)OCC1=C(N2CC2)C(=O)C(C)=C(N2CC2)C1=O [Compound 4-11]
Physchem [1]
  half-life: < 30 min

## COc1cc(C(=O)OCC2=C(N3CC3)C(=O)C(C)=C(N3CC3)C2=O)cc(OC)c1OC [Compound 4-14]
Physchem [1]
  half-life: < 30 min

## CC1=C(N2CC2)C(=O)C(COC(=O)c2ccc([N+](=O)[O-])cc2)=C(N2CC2)C1=O [Compound 4-20]
Physchem [1]
  half-life: 20 min

## CC1=C(N2CC2)C(=O)C(COC(=O)C(C)C)=C(N2CC2)C1=O [Compound 4-36]
Physchem [1]
  half-life: < 30 min

## CCC(=O)OCC1=C(N2CC2)C(=O)C(C)=C(N2CC2)C1=O [Compound 4-38]
Physchem [1]
  half-life: 20 min

## CC1=C(N2CC2)C(=O)C(COC(=O)C(C)(C)C)=C(N2CC2)C1=O [Compound 4-39]
Physchem [1]
  half-life: < 30 min

## CC1=C(N2CC2)C(=O)C(CCCO)=C(N2CC2)C1=O [Compound 4-61, 2,5-Bisaziridin-1-yl-3-(3-hydroxypropyl)-6-methyl-1,4-benzoquinone]
Physchem [2]
  half-life at 50 μM: > 1440 min
MDA468; Homo sapiens
  IC50: 17 nM
MDA NQ01; Homo sapiens, MTT assay
  IC50: 0.41 nM
MDA NQ01; IC50 MDA 468 / IC50 MDA NQO1
  DT diaphorase enhancement ratio: 41
MDA NQ01; IC50 values, MTT assay
  selectivity towards cells that express DT-diaphorase: excellent selectivity
Physchem [1]
  half-life at 50 μM: > 1440 min

## CC(=O)OCCC1=C(N2CC2)C(=O)C(C)=C(N2CC2)C1=O [Compound 4-70]
Physchem [1]
  half-life: < 60 min

## CC1=C(N2CC2)C(=O)C(CCOC(=O)c2ccccc2)=C(N2CC2)C1=O [Compound 4-71]
Physchem [1]
  half-life: < 60 min

## Nc1ccn([C@@H]2O[C@H](CO)[C@@H](O)[C@@H]2O)c(=O)n1 [Cytosine arabinoside (ARA-C), Cytosine arabinoside]
MDA468
  IC50: 250 nM
MDA NQ01; MTT assay
  IC50: 240 nM

## CC(=O)O[C@@]12CO[C@@H]1C[C@H](O)[C@@]1(C)C(=O)[C@H](O)C3=C(C)[C@@H](OC(=O)[C@H](O)[C@@H](NC(=O)OC(C)(C)C)c4ccccc4)C[C@@](O)([C@@H](OC(=O)c4ccccc4)[C@H]21)C3(C)C [Docetaxel]
MDA468; Homo sapiens
  IC50: 1.15 nM
MDA NQ01; Homo sapiens, MTT assay
  IC50: 1.88 nM

## COc1cccc2c1C(=O)c1c(O)c3c(c(O)c1C2=O)C[C@@](O)(C(=O)CO)C[C@@H]3O[C@H]1C[C@H](N)[C@H](O)[C@H](C)O1 [Doxorubicin, reference compound]
H460 NSCLC
  cell survival compared to the untreated control, H460, s.c. site: did not demonstrate significant efficacy
MDA-MB-468-NQ01; fibres at s.c. site, i.p. dosing days 3-6, nude mice
  cell survival compared to the untreated control, MDA-MB-468-NQ01, s.c. site: did not demonstrate significant efficacy
MDA-MB-468-NQ01; hollow fibre assay
  efficacy in the NQ01-expressing compared to the Mock MDA-MB-468 cell line: little difference
MDA-MB-468-MOCK
  cell survival compared to the untreated control, MDA-MB-468-MOCK, s.c. site: did not demonstrate significant efficacy

## COc1cccc2c1C(=O)c1c(O)c3c(c(O)c1C2=O)C[C@@](O)(C(=O)CO)C[C@@H]3O[C@H]1C[C@H](N)[C@@H](O)[C@H](C)O1 [Epirubicin]
MDA468; Homo sapiens
  IC50: 23.2 nM
MDA NQ01; Homo sapiens, MTT assay
  IC50: 27.5 nM

## CC1=C(N2CC2)C(=O)C(C)=C(N2CC2)C1=O [MeDZQ, 2,5-diaziridinyl-3,6-dimethyl-1,4-benzoquinone]
Recombinant human DTD
  effectiveness as a substrate for recombinant human DTD relative to mitomycin C: more than 150 fold

## CN(Cc1cnc2nc(N)nc(N)c2n1)c1ccc(C(=O)N[C@@H](CCC(=O)O)C(=O)O)cc1 [Methotrexate]
MDA468; Homo sapiens
  IC50: 45 nM
MDA NQ01; Homo sapiens, MTT assay
  IC50: 27 nM

## CO[C@@]12[C@H](COC(N)=O)C3=C(C(=O)C(C)=C(N)C3=O)N1C[C@@H]1N[C@@H]12 [Mitomycin C]
MDA468
  IC50: 50 nM
MDA NQ01; MTT assay
  IC50: 10 nM
MDA NQ01
  MDA468 to NQ01 differential: ~5 fold

## CC1=C(N2CC2)C(=O)C(CO)=C(N2CC2)C1=O [RH1, 2,5-diaziridiny 1-3-(hydroxymethyl)-6-methyl-1,4-benzoquinone]
MDA468
  IC50: 4.41 nM and 3.5 nM
MDA NQ01; MTT assay
  IC50: 0.12 nM
MDA NQ01
  MDA468 to NQ01 differential: > 30 fold
MDA468 cells; with ARC-C
  Combination index at IC50 with ARC-C in MDA468 cells: 1.45 (slight
MDA468 cells; with Cis-platinum
  Combination index at IC50 with Cis-platinum in MDA468: 0.499 (synergy)
MDA468 cells; with Docetaxel
  Combination index at IC50 with Docetaxel in MDA468 cells: 0.850 (slight
MDA468 cells; with Epirubicin
  Combination index at IC50 with Epirubicin in MDA468 cells: 4.81 (strong
MDA468 cells; with Mitomycin C
  Combination Index at IC50 with Mitomycin C in MDA468 cells: 0.577 (synergy)
MDA468 cells; with cobalt chloride
  Combination index at IC50 with cobalt chloride in MDA468 cells: 0.170 (strong
NQ01 cells; with ARA-C
  Combination index at IC50 with ARA-C in NQ01 cells: 1.22 (slight
NQ01 cells; with Cis-platinum
  Combination index at IC50 with Cis-platinum in MDA NQ01: 0.672 (synergy)
NQ01 cells; with Docetaxel
  Combination index at IC50 with Docetaxel in NQ01 cells: 0.864 (slight
NQ01 cells; with Epirubicin
  Combination index at IC50 with Epirubicin in NQ01 cells: 2.09 (antagonism)
NQ01 cells; with Mitomycin C
  Combination Index at IC50 with Mitomycin C in NQ01 cells: 1.2 (slight
NQ01 cells; with cobalt chloride
  Combination index at IC50 with cobalt chloride in NQ01 cells: 0.80 (moderate
[3]; pH 4.16, from AAPS PharmSciTech 2007
  pH stability, t1/2: t1/2 = 0.07 days
[3]; pH 7.33, from AAPS PharmSciTech 2007
  pH stability, t1/2: t1/2 = 43.52 days
[3]; pH 9.82, nearest comparison from AAPS PharmSciTech 2007, 8 (1) Article 16
  pH stability, t1/2: t1/2 = 0.96 days
Temperature stability; 4 C.
  Temperature stability, t90: 4 C. t90 >7 days
Temperature stability; 40 C.
  Temperature stability, t90: 40 C. t90 2 days
Temperature stability; 55 C.
  Temperature stability, t1/2: 55 C. t1/2 2 days
Temperature stability; Ambient
  Temperature stability, t90: Ambient t90 3 days
[4]; DMSO/chloroform
  Solubility (organic): >30 mg/mL
[4]; water
  Solubility (aqueous): 0.5 mg/mL (water) (≈ 2.13 mM)
[5]
  Stability (aqueous): >7 days
[5]; in words
  Stability (organic): months

## CC[C@]1(O)C[C@@H]2CN(CCc3c([nH]c4ccccc34)[C@@](C(=O)OC)(c3cc4c(cc3OC)N(C)[C@H]3[C@@](O)(C(=O)OC)[C@H](OC(C)=O)[C@]5(CC)C=CCN6CC[C@]43[C@@H]65)C2)C1 [Vinblastine]
MDA468; Homo sapiens
  IC50: 16 nM
MDA NQ01; Homo sapiens, MTT assay
  IC50: 18.3 nM

— US9266829B2, “Quinone compounds and their uses for the treatment of cancer” (Onco-NX Limited, priority 2012, dated 2016)
